Measurements published in patent publication US20120046292A1, “[…] COMPOUND” (ASTELLAS PHARMA INC., priority 2009, published 2012).

Columns and labels:
human DGAT1 (hDGAT1) = biological target: T1, human DGAT1 (hDGAT1) (Homo sapiens, UniProt O75907); experiment: DGAT1 inhibitory activity test (hDGAT1-expressing Sf9 cell microsome, [14C]oleoyl-CoA, FlashPlate); type: biochemical; conditions: test substance 1, 10, 100, 1000 nM, linear regression
T1 construct: made in house; host or cells: Sf9 insect cells (Bac-to-Bac baculovirus, pFastBac1); microsomal fraction
T1 sequence (O75907 1-488): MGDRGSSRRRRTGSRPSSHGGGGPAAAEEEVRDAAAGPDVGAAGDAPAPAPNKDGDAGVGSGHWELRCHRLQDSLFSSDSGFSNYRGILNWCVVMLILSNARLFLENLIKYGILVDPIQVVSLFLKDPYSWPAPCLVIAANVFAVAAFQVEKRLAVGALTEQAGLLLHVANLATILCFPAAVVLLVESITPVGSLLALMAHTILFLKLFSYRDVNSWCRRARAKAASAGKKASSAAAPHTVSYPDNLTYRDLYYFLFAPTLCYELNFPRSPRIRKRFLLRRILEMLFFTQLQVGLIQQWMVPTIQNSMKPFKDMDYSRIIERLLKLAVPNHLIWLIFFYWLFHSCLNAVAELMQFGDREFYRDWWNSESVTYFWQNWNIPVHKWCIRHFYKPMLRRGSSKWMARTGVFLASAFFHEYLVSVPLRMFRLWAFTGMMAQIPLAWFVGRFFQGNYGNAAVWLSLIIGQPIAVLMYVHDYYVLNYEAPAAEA
Protocol: (1) Production of Bacmid-hDGAT1
A base sequence encoding a human DGAT1 (hDGAT1) (1467 bases of CDS in Genbank Accession No. NM_012079) was cloned and ligated to pFastBac™1 (Invitrogen) to produce a pFastBac1-hDGAT1. From this plasmid, an engineered baculovirus liquid (Bacmid-hDGAT1) was prepared using a Bac-to-Bac (registered trademark) Baculovirus Expression System (Invitrogen).
(2) Preparation of Sf9 Cell-Derived DGAT1-Expressing Microsomal Fraction
Sf9 cells were seeded into a 225-cm^2 Flask Angled Neck (CORNING) to a confluency of 80%, and statically cultured in an incubator at 27° C. using an EX-CELL™ 420 INSECT SERUM-FREE MEDIUM (SAFC Biosciences, Inc.). After 24 hours, the culture medium was taken out, and a liquid obtained by diluting 1.67 mL of an engineered baculovirus medium (Bacmid-hDGAT1) with 3.33 mL of an EX-CELL™ 420 INSECT SERUM-FREE MEDIUM was added thereto, and the resultant was cultured under shaking in an incubator at 27° C. for 1 hour. Thereafter, 25 mL of an EX-CELL™ 420 INSECT SERUM-FREE MEDIUM was added thereto, followed by culturing in an incubator at 27° C. for 72 hours. The infected cells were harvested, diluted with 1.5 mL of a buffer A (40 mM phosphate buffer (pH 7.2) including 100 mM sucrose and 50 mM KCl) containing a Complete Protease Inhibitor Cocktail (Roche Diagnostics K. K.), and then subjected to sonication using a SONIFER 250 (BRANSON Ultrasonic Corp.). This suspension was centrifuged at 10000×g for 5 minutes and the supernatant was recovered. This supernatant was centrifuged at 100000×g for 60 minutes and the resulting precipitate was dissolved in 600 μL of a buffer A and then subjected to sonication again, to prepare a suspension. This suspension was taken as a hDGAT1-expressing Sf9 cell microsome.
(3) DGAT1 Activity Measurement
For the DGAT1 activity, a test substance in DMSO (final DMSO concentration 2%) in which 100 mM Tris-HCl (pH 8.0), 2 mM MgCl2, 0.01% BSA, a hDGAT1-expressing Sf9 cell microsome, 200 μM dioleoyl glycerol or dipalmitoyl glycerol, 8.9 μM [^14C] oleoyl-CoA, and 1.68% acetone were added to a phospholipid FlashPlate (PerkinElmer Life Science). The reaction was carried out at 30° C. for 60 minutes, and then twice the amount (100 μL), relative to the reaction liquid, of a mixture of isopropyl alcohol:0.1 M carbonate buffer (pH 9.0) at a ratio of 1:1 was added thereto to stop the reaction. The next day, the count was measured with a TopCount microplate scintillation counter (PerkinElmer Life Science).
The count without addition of the test substance was taken as a control (TG with addition of DMSO). The count without addition of the test substance and the microsome was taken as a Blank TG. The DGAT1 inhibitory rate of the test substance was calculated by the following calculation equation:
Inhibitory Rate (%)=(TG with addition of test substance−Blank TG)÷(TG with addition of DMSO−Blank TG)×100
The DGAT1 inhibitory rates were calculated when the concentrations of the test substance in the reaction liquid were 1, 10, 100, and 1000 nM. Linear regression was performed using the inhibitory rates obtained, and a test substance concentration (IC50) required to inhibit the DGAT1 activity by 50% was calculated by an SAS 8.2 software package (SAS Institute Japan, Ltd., Tokyo, Japan).

male C57BL/6J mice = experiment: Inhibitory action on increase in triglyceride (TG) by fat administration; type: in vivo; conditions: administration amount 0.3 mg/kg; fat (intralipid 20%, 10 mL/kg) orally 20 hours after dosing; plasma TG 2 hours after fat; control 0.5% methyl cellulose group
Protocol: 8- to 15-week male C57BL/6J mice were fasted for four hours, and the test substances were administered to the mice. The test substance was administered after suspending it in a 0.5% methyl cellulose solution. After 20 hours, fat (intralipid 20%, Terumo (Fresenius), 10 mL/kg) was orally administered thereto. Immediately before and after 2 hours from administration of the fat, blood was collected from the tail vein to obtain plasma. For measurement of the TG in plasma, a TG increase in the plasma by fat administration was calculated using a Triglyceride E Test Wako (Wako Pure Chemical Industries Ltd.). Using the TG increase in the plasma in a group to which 0.5% methyl cellulose had been administered as a control, the TG increase inhibitory rate when the test substance had been administered was determined.

DIO mice = experiment: Anti-obesity action in DIO mice; type: in vivo; conditions: oral, once per day, administration period 2 weeks, 1 mg/kg; high-fat diet C57BL/6J mice; solvent group weight increase = 100%
Protocol: High-fat diet formula (Research Diet D12492, 60 kcal % fat) were given to 9-week male C57BL/6J mice. For acclimatization of the mice, the solvent used in the test from the 4th week was administered thereto. From the 5th week, the test substance was orally administered once or twice daily. The test substance was administered after suspending it in a 0.5% methyl cellulose solution. Administration was performed repeatedly for 2 or 4 weeks, and variation in the weights due to the test substance administration was observed. By taking the increase in the weight in the group to which the solvent had been administered within a test period as 100%, the weight increase inhibitory rate of the test substance was calculated.

SMILES	IC50 (human DGAT1 (hDGAT1))	TG increase inhibitory rate (male C57BL/6J mice)	weight increase inhibitory rate (DIO mice)
O=C(NCCNC(=O)c1ccc(O[C@H]2CC[C@@H](C(=O)O)CC2)cc1)c1ccc(Oc2ccc(F)cc2)cc1 [Example 63]	0.4 nM		
O=C(O)C[C@H]1CC[C@@H](Oc2cc(F)c(C(=O)NCCNC(=O)c3ccc4ccccc4c3)cc2F)CC1 [Example 571]	1.6 nM		
CCOc1ccc(C(=O)NCCNC(=O)c2ccc(O[C@H]3CC[C@@H](C(=O)O)CC3)nc2)cc1Cl [Example 245]	14 nM		
O=C(NCCNC(=O)c1sc2ccccc2c1Cl)c1ccc(O[C@H]2CC[C@@H](C(=O)O)CC2)cc1 [Example 469]	1.7 nM	109%	
O=C(NCCNC(=O)c1ccc(C2CC2)c(Cl)c1)c1ccc(O[C@H]2CC[C@@H](C(=O)O)CC2)c(F)c1 [Example 135]	5.8 nM		
O=C(NCCNC(=O)c1ccc(O[C@H]2CC[C@@H](C(=O)O)CC2)cc1F)c1cc2cc(F)ccc2s1 [Example 531]	0.1 nM		
O=C(NCCNC(=O)c1c(F)cc(O[C@H]2CC[C@@H](C(=O)O)CC2)cc1F)c1ccc2ccccc2c1 [Example 299]	6.7 nM		
O=C(O)CC1CCC(c2ccc(C(=O)NCCNC(=O)c3ccc(Cl)cc3)cc2)CC1 (stereo not drawn) [Example 6, {4-[4-({2-[(4-chlorobenzoyl)amino]ethyl}carbamoyl)phenyl]cyclohexyl}acetic acid]	20 nM		
O=C(NCCNC(=O)N1CCC(c2ccc(Cl)cc2)CC1)c1ccc(O[C@H]2CC[C@@H](C(=O)O)CC2)c(F)c1F [Example 480]	5.2 nM		
O=C(O)CC1CCN(c2c(F)cc(C(=O)NCCNC(=O)c3sc4ccccc4c3Cl)cc2F)CC1 [Example 604]	32 nM		
O=C(NCCNC(=O)c1ccc(O[C@H]2CC[C@@H](C(=O)O)CC2)c(F)c1F)c1ccc(Cl)s1 [Example 490]	3.8 nM	92%	98%
CCCCCC12CCC(C(=O)NCCNC(=O)c3ccc(O[C@H]4CC[C@@H](C(=O)O)CC4)cc3)(CC1)CC2 [Example 20]	2.1 nM		
O=C(NCCNC(=O)c1cc(F)c(O[C@H]2CC[C@@H](C(=O)O)CC2)cc1F)c1ccc2ccccc2c1 [Example 454]	1 nM	106%	93%
O=C(NCCNC(=O)c1ccc(O[C@H]2CC[C@@H](C(=O)O)CC2)cc1)Nc1ccccc1Cl [Example 56]	14 nM		

Second part, led by results:

IC50 (human DGAT1 (hDGAT1))	SMILES	TG increase inhibitory rate (male C57BL/6J mice)	weight increase inhibitory rate (DIO mice)
2.3 nM	O=C(NCCNC(=O)c1ccc(C2CC2)cc1)c1ccc(O[C@H]2CC[C@@H](C(=O)O)CC2)cc1 [Example 79]	79%	
2.7 nM	O=C(NCCNC(=O)c1ccc(O[C@H]2CC[C@@H](C(=O)O)CC2)cc1F)c1ccc2ccccc2c1 [Example 169]	75%	
5.6 nM	O=C(NCCNC(=O)c1ccc(O[C@H]2CC[C@@H](C(=O)O)CC2)c(F)c1F)c1ccc2ccccc2c1 [Example 300]		
9.9 nM	O=C(NCCNC(=O)c1ccc(F)c(C(F)(F)F)c1)c1ccc(O[C@H]2CC[C@@H](C(=O)O)CC2)cc1 [Example 82]		
5.2 nM	O=C(NCCNC(=O)c1ccc2ccccc2c1)c1ccc(O[C@H]2CC[C@@H](C(=O)O)CC2)cc1 [Example 83]		
4.2 nM	O=C(NCCNC(=O)c1cc2cc(OC(F)(F)F)ccc2[nH]1)c1ccc(O[C@H]2CC[C@@H](C(=O)O)CC2)cc1 [Example 148]		
8.1 nM	Cc1cc(O[C@H]2CC[C@@H](C(=O)O)CC2)ccc1C(=O)NCCNC(=O)c1ccc(C(F)(F)F)cc1 [Example 187]		
5.3 nM	Cc1cc(C(=O)NCCNC(=O)c2ccc(O[C@H]3CC[C@@H](C(=O)O)CC3)cc2)ccc1Cl [Example 106]		
21 nM	CCOc1ccc(C(=O)NCCNC(=O)c2ccc(O[C@H]3CC[C@@H](C(=O)O)CC3)cc2)cc1 [Example 18]		
